Calls of active or inactive are those of the source. The rule behind the calls is not given here.
What was measured:
WI-38 = experiment: Antiproliferative activity against human WI38 cells after 48 hrs by MTT assay; type: cell-based; conditions: WI-38, 48 h
MGC-803 [1] = experiment: Antiproliferative activity against human MGC803 cells after 48 hrs by MTT assay; type: functional, cell-based; conditions: MGC-803, 48 h
HepG2 = experiment: Antiproliferative activity against human HepG2 cells after 48 hrs by MTT assay; type: functional, cell-based; conditions: HepG2, 48 h
T-24 = experiment: Antiproliferative activity against human T24 cells after 48 hrs by MTT assay; type: functional, cell-based; conditions: T-24, 48 h
DNA = experiment: Binding affinity to Escherichia coli supercoiled pBR322 DNA assessed as DNA intercalation at 50 uM after 1 hr by ethidium bromide staining-based agarose gel electrophoresis analysis; type: nucleic-acid assay
[2] = target: T1, DNA topoisomerase 1 (Homo sapiens) (UniProt P11387); experiment: Inhibition of topoisomerase 1 (unknown origin) at 50 uM using pBR322 DNA as substrate preincubated for 30 mins followed by substrate addition and measured after 30 mins by ethidium bromide staining-based agarose gel electrophoresis analysis
T1 sequence (whole entry): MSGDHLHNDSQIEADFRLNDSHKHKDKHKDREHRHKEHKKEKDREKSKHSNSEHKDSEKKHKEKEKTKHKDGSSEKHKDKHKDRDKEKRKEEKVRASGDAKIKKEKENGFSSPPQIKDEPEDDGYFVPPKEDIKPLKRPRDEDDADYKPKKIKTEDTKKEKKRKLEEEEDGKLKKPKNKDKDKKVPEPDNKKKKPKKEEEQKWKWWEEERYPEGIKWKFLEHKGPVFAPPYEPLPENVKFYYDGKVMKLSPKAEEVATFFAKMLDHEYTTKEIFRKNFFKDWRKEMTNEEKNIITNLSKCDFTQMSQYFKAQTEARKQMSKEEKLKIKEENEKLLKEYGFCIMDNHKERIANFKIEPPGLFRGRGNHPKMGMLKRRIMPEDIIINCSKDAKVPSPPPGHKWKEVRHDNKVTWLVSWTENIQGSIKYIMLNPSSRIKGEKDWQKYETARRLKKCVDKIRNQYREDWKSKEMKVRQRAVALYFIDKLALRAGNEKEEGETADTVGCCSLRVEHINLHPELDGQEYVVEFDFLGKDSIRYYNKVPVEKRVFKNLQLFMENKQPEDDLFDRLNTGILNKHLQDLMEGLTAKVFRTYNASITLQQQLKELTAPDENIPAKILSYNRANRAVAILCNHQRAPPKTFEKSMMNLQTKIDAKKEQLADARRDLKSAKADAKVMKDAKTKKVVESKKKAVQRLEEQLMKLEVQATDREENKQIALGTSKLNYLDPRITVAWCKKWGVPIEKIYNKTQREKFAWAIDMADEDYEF

[3] = target: T1, DNA topoisomerase 1 (Homo sapiens); experiment: Inhibition of topoisomerase 1 (unknown origin) using pBR322 DNA as substrate assessed as reduction in pBR322 DNA unwinding at 50 uM after 30 mins by ethidium bromide staining-based agarose gel electrophoresis analysis
A549 = experiment: cells; conditions: Homo sapiens, A549, 48 h
HeLa = experiment: cells; conditions: Homo sapiens, 48 h
MGC-803 [4] = experiment: Antitumor activity against human MGC803 cells xenografted in BALB/C mouse assessed as tumor growth inhibition at 6 mg/kg, ip dosed every other day for 16 days relative to control; type: functional; conditions: MGC-803, ip, read-out: TGI

Row | IC50 (MGC-803 [1]) | IC50 (HepG2) | Activity (DNA) | inhibition [2] | inhibition [3] | IC50 (A549) | IC50 (HeLa) | SMILES | IC50 (WI-38) | IC50 (T-24) | inhibition in vivo at 6 mg/kg (MGC-803 [4])
1 | 11.3 µM | 10.8 µM | inactive | inactive | inactive | 4.66 µM | 10.5 µM | CN(C)CCCNc1nc2ccccc2nc1-c1nc2c(ccc3ccccc32)o1 | 16.4 µM | 5.75 µM | –
2 | > 100 µM | > 100 µM | – | – | – | > 100 µM | > 100 µM | c1ccc2nc(-c3nc4ccccc4o3)c(NCCCN3CCOCC3)nc2c1 | > 100 µM | > 100 µM | –
3 | > 100 µM | > 100 µM | – | – | – | > 100 µM | > 100 µM | c1ccc2nc(-c3nc4ccccc4s3)c(NCCCN3CCOCC3)nc2c1 | > 100 µM | > 100 µM | –
4 | > 100 µM | > 100 µM | – | – | – | > 100 µM | > 100 µM | c1ccc2nc(-c3nc4ccccc4o3)c(NCCN3CCOCC3)nc2c1 | > 100 µM | > 100 µM | –
5 | > 100 µM | > 100 µM | – | – | – | > 100 µM | > 100 µM | c1ccc2nc(-c3nc4ccccc4[nH]3)c(NCCN3CCOCC3)nc2c1 | > 100 µM | > 100 µM | –
6 | 11.5 µM | 12.7 µM | inactive | inactive | inactive | 11.3 µM | 10.8 µM | CCN(CC)CCCNc1nc2ccccc2nc1-c1nc2c(ccc3ccccc32)o1 | 14.7 µM | 8 µM | –
7 | > 100 µM | > 100 µM | – | – | – | > 100 µM | > 100 µM | c1ccc2nc(-c3nc4ccccc4[nH]3)c(NCCCN3CCOCC3)nc2c1 | > 100 µM | > 100 µM | –
8 | > 100 µM | > 100 µM | – | – | – | > 100 µM | > 100 µM | c1ccc2nc(-c3nc4ccccc4s3)c(NCCN3CCOCC3)nc2c1 | > 100 µM | > 100 µM | –

Row | SMILES | IC50 (MGC-803 [1]) | IC50 (HepG2) | Activity (DNA) | inhibition [2] | inhibition [3] | IC50 (A549) | IC50 (HeLa) | IC50 (WI-38) | IC50 (T-24) | inhibition in vivo at 6 mg/kg (MGC-803 [4])
9 | CC[C@@]1(O)C(=O)OCc2c1cc1n(c2=O)Cc2cc3ccccc3nc2-1 [CAMPTOTHECIN] | 2.96 µM | 4.79 µM | – | – | – | 4.43 µM | 6.51 µM | 8.37 µM | 6.8 µM | 51.5%
